Measured values as given in US20100298141A1, “SUBSTITUTED PYRIDINE N-OXIDE HERBICIDES” (E. I. DU PONT DE NEMOURS AND COMPANY, priority 2007, published 2010).

Legend:
Experiment in all cases: Test F preemergence test
dallisgrass = type: in vivo, Paspalum dilatatum; details: scale 0 to 100
Outline: (§1)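 Preemergence application to planted seeds, or postemergence to sugarcane plants; compound in non-phytotoxic solvent mix plus surfactant. Greenhouse, 14-21 days. Visual rating vs. controls.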

Virginia dayflower = type: in vivo, Commelina virginica; details: scale 0 to 100
Outline: as §1

quackgrass = type: in vivo, Elytrigia repens; details: scale 0 to 100
Outline: as §1

kochia = type: in vivo, Kochia scoparia; details: scale 0 to 100
Outline: as §1

pitted morningglory = type: in vivo, Ipomoea lacunosa; details: scale 0 to 100
Source text: (§2) Seeds of plant species selected from bermudagrass (Cynodon dactylon), Surinam grass (Brachiaria decumbens), large crabgrass (Digitaria sanguinalis), green foxtail (Setaria viridis), goosegrass (Eleusine indica), johnsongrass (Sorghum halepense), kochia (Kochia scoparia), pitted morningglory (Ipomoea lacunosa), purple nutsedge (Cyperus rotundus), common ragweed (Ambrosia elation), mustard (Brassica nigra), guineagrass (Panicum maximum), […] (Paspalum dilatatum), barnyardgrass (Echinochloa crus-galli), southern sandbur (Cenchrus echinatus), common sowthistle (Sonchus oleraceous), prickly […] spinosa), Italian ryegrass (Lolium multiflorum), common purslane (Portulaca oleracea), broadleaf signalgrass (Brachiaria platyphylla), common groundsel (Senecio vulgaris), common chickweed (Stellaria media), Virginia dayflower (Commelina virginica), annual bluegrass (Poa annua), naked crabgrass (Digitaria nuda), […] cochinchinensis), quackgrass (Elytrigia repens), Canada horseweed (Conyza canadensis), field bindweed (Convolvulus arvensis), […] (Bidens bipinnata), common mallow (Malva sylvestris), Russian thistle (Salsola kali), and sugarcane (Saccharum officinarum) were planted and treated preemergence with test chemicals formulated in a non-phytotoxic solvent mixture which included a surfactant. At a different time, sugarcane was treated with postemergence applications of some of the test chemicals formulated in the same manner. Plants were approximately 3- to 4-leaf stage for the postemergence treatments. Treated plants and controls were maintained in a greenhouse for 14 to 21 days, after which time all species were compared to controls and visually evaluated. […] A dash (-) response means no test result.

annual bluegrass = type: in vivo, Poa annua; details: scale 0 to 100
Outline: as §1

bermudagrass = type: in vivo, Cynodon dactylon; details: scale 0 to 100
Outline: as §1

naked crabgrass = type: in vivo, Digitaria nuda; details: scale 0 to 100
Outline: as §1

broadleaf signalgrass = type: in vivo, Brachiaria platyphylla; details: scale 0 to 100
Outline: as §1

prickly sida = type: in vivo, Sida spinosa; details: scale 0 to 100
Outline: as §1

barnyardgrass = type: in vivo, Echinochloa crus-galli
Outline: as §1

mustard = type: in vivo, Brassica nigra; details: scale 0 to 100
Outline: as §1

purple nutsedge = type: in vivo, Cyperus rotundus; details: scale 0 to 100
Outline: as §1

common mallow = type: in vivo, Malva sylvestris; details: scale 0 to 100
Source text: as §2

common purslane = type: in vivo, Portulaca oleracea; details: scale 0 to 100
Outline: as §1

common groundsel = type: in vivo, Senecio vulgaris; details: 125 g ai/ha, preemergence, scale 0 to 100
Outline: as §1

guineagrass = type: in vivo, Panicum maximum; details: scale 0 to 100
Outline: as §1

SMILES: CC(c1c(C(F)(F)F)nn(C)c1OCC(F)(F)F)S(=O)(=O)c1cccc[n+]1[O-] (racemic) [Compound 33]
- Plant response rating, Dallisgrass (dallisgrass; 16 g ai/ha, preemergence): 30
- Dallisgrass plant response rating (dallisgrass; 62 g ai/ha, Preemergence): 80
- Dallisgrass plant response rating (dallisgrass; 125 g ai/ha, preemergence): 100
- Plant response rating, Dallisgrass (dallisgrass; Preemergence, 31 g ai/ha): 65
- Plant response rating, Dayflower (Virginia dayflower; 16 g ai/ha, preemergence): 60
- Dayflower plant response rating (Virginia dayflower; 62 g ai/ha, Preemergence): 98
- Dayflower plant response rating (Virginia dayflower; 125 g ai/ha, preemergence): 100
- Plant response rating, Dayflower (Virginia dayflower; Preemergence, 31 g ai/ha): 90
- Plant response rating, Quackgrass (quackgrass; 16 g ai/ha, preemergence): 0
- Quackgrass plant response rating (quackgrass; 62 g ai/ha, Preemergence): 75
- Quackgrass plant response rating (quackgrass; 125 g ai/ha, preemergence): 95
- Plant response rating, Quackgrass (quackgrass; Preemergence, 31 g ai/ha): 25
- Plant response rating, Kochia (kochia; 16 g ai/ha, preemergence): 0
- Kochia plant response rating (kochia; 62 g ai/ha, Preemergence): 70
- Kochia plant response rating (kochia; 125 g ai/ha, preemergence): 100
- Plant response rating, Kochia (kochia; Preemergence, 31 g ai/ha): 50
- Plant response rating, Morningglory (pitted morningglory; 16 g ai/ha, preemergence): 0
- Morningglory plant response rating (pitted morningglory; 62 g ai/ha, Preemergence): 98
- Morningglory plant response rating (pitted morningglory; 125 g ai/ha, preemergence): 100
- Plant response rating, Morningglory (pitted morningglory; Preemergence, 31 g ai/ha): 15
- Plant response rating, Bluegrass (annual bluegrass; 16 g ai/ha, preemergence): 35
- Bluegrass plant response rating (annual bluegrass; 62 g ai/ha, Preemergence): 100
- Bluegrass plant response rating (annual bluegrass; 125 g ai/ha, preemergence): 100
- Plant response rating, Bluegrass (annual bluegrass; Preemergence, 31 g ai/ha): 65
- Plant response rating, Bermudagrass (bermudagrass; 16 g ai/ha, preemergence): 40
- Bermudagrass plant response rating (bermudagrass; 62 g ai/ha, Preemergence): 70
- Bermudagrass plant response rating (bermudagrass; 125 g ai/ha, preemergence): 100
- Plant response rating, Bermudagrass (bermudagrass; Preemergence, 31 g ai/ha): 60
- Plant response rating, Crabgrass, Naked (naked crabgrass; 16 g ai/ha, preemergence): 75
- Crabgrass, Naked plant response rating (naked crabgrass; 62 g ai/ha, Preemergence): 100
- Crabgrass, Naked plant response rating (naked crabgrass; 125 g ai/ha, preemergence): 100
- Plant response rating, Signalgrass (broadleaf signalgrass; 16 g ai/ha, preemergence): 15
- Signalgrass plant response rating (broadleaf signalgrass; 125 g ai/ha, preemergence): 80
- Plant response rating, Signalgrass (broadleaf signalgrass; Preemergence, 62 g ai/ha): 75
- Plant response rating, Signalgrass (broadleaf signalgrass; Preemergence, 31 g ai/ha): 35
- Plant response rating, Prickly Sida (prickly sida; 16 g ai/ha, preemergence): 25
- Prickly Sida plant response rating (prickly sida; 62 g ai/ha, Preemergence): 90
- Prickly Sida plant response rating (prickly sida; 125 g ai/ha, preemergence): 100
- Plant response rating, Prickly Sida (prickly sida; Preemergence, 31 g ai/ha): 90
- Plant response rating, Barnyardgrass (barnyardgrass; 16 g ai/ha, preemergence, scale 0 to 100 (0 no effect, 100 complete control)): 100
- Barnyardgrass plant response rating (barnyardgrass; 62 g ai/ha, Preemergence, scale 0 to 100): 100
- Barnyardgrass plant response rating (barnyardgrass; 125 g ai/ha, preemergence, scale 0 to 100): 100
- Plant response rating, Barnyardgrass (barnyardgrass; Preemergence, 31 g ai/ha, scale 0 to 100): 100
- Plant response rating, Black Mustard (mustard; 16 g ai/ha, preemergence): 10
- Black Mustard plant response rating (mustard; 62 g ai/ha, Preemergence): 100
- Black Mustard plant response rating (mustard; 125 g ai/ha, preemergence): 100
- Plant response rating, Black Mustard (mustard; Preemergence, 31 g ai/ha): 65
- Plant response rating, Purple Nutsedge (purple nutsedge; 16 g ai/ha, preemergence): 0
- Purple Nutsedge plant response rating (purple nutsedge; 62 g ai/ha, Preemergence): 85
- Purple Nutsedge plant response rating (purple nutsedge; 125 g ai/ha, preemergence): 85
- Plant response rating, Purple Nutsedge (purple nutsedge; Preemergence, 31 g ai/ha): 35
- Plant response rating, Mallow (common mallow; 16 g ai/ha, preemergence): 100
- Mallow plant response rating (common mallow; 62 g ai/ha, Preemergence): 100
- Mallow plant response rating (common mallow; 125 g ai/ha, preemergence): 100
- Plant response rating, Mallow (common mallow; Preemergence, 31 g ai/ha): 100
- Plant response rating, Purslane (common purslane; 16 g ai/ha, preemergence): 0
- Purslane plant response rating (common purslane; 62 g ai/ha, Preemergence): 65
- Purslane plant response rating (common purslane; 125 g ai/ha, preemergence): 100
- Plant response rating, Purslane (common purslane; Preemergence, 31 g ai/ha): 20
- Groundsel plant response rating (common groundsel): 100
- Plant response rating, Guineagrass (guineagrass; 16 g ai/ha, preemergence): 70
- Guineagrass plant response rating (guineagrass; 62 g ai/ha, Preemergence): 100
- Guineagrass plant response rating (guineagrass; 125 g ai/ha, preemergence): 100
- Plant response rating, Guineagrass (guineagrass; Preemergence, 31 g ai/ha): 100
